Experiments:
[1] = system: IFN-γ, TNFα, IL-1β, IL-4, IL-5, IL-6, IL-10, IL-13, and IL17A; experiment: Cytometric bead array of cytokines in BALF of Example 1; type: in vivo, C57BL/6j mice; settings: 60 mg/kg i.p., treated vs asthmatic mice
Text: Cytometric bead arrays were used as a method to assess the concentration of cytokines of IFN-γ, TNFα, IL-1β, IL-4, IL-5, IL-6, IL-10, IL-13, and IL17A) in the BALF of Example 1. The beads in this array were coated with antibodies specific against a variety of cytokines, some relevant and known to be affected by NLRP3 signaling.

[2] = system: OVA-induced allergic airway inflammation; experiment: Airway resistance in methacholine provocation test, OVA model, i.p. dapansutrile; type: in vivo, C57BL/6j mice; settings: 60 mg/kg i.p., Day 29, 100 mg/mL methacholine
Experimental: C57BL/6j mice were sensitized to OVA (ovalbumin) by three intraperitoneal (i.p.) injections of 10 μg OVA adsorbed to 150 mg aluminum hydroxide on days 1, 14, and 21. This sensitization results in an adoptive immune response against OVA with OVA-specific TH2 cells and the production of OVA-specific antibodies of the subclasses IgE and […]. To induce acute allergic airway inflammation, mice were exposed three times to an OVA aerosol (1% w/v in PBS) on days 26, 27, and 28. Healthy control animals (healthy group) were sham sensitized to PBS and subsequently challenged with PBS aerosol. […] The following readouts were measured according to Lunding, 2015b. • General infiltration of inflammatory cells into the broncheoalveolar lumen • Determination of the specific infiltration of eosinophils, neutrophils and lymphocytes by histologic differentiation of the bronchoalveolar lavage (BAL) cells. • Goblet cell hyperplasia by CAST system (Computer Assisted Stereological Toolbox), including making microscopic pictures of the airways. • Airway resistance in response to methacholine to determine the airway hyperresponsiveness. Specifically, inflammatory cell subpopulations (eosinophils, macrophages, neutrophils, lymphocytes) infiltrating the bronchoalveolar lumen were quantified using cyto-spinned and quick-diff-stained cells from bronchoalveolar lavage fluids (BALF). […]

[3] = Blood level in mice fed dapansutrile food pellets; type: in vivo, mouse; settings: 7.5 g/kg dapansutrile in food, nearly the same as the human level
Experimental: The already-sensitized mice were fed ad libidum with food pellets containing 7.5 g/kg dapansutrile starting on day 22 for one week; the first aerosol challenge was on day 26. Mice typically consume about 4 g of food per day, resulting in an approximate daily dose of 0 mg/kg/day for control groups and 1,000 mg/kg/day for the treatment groups.

[4] = system: OVA-induced allergic airway inflammation; experiment: Leukocyte subpopulations in bronchoalveolar lavage fluid, OVA allergic asthma model, i.p. dapansutrile; type: in vivo, C57BL/6j mice; settings: Day 29
Text: A well-established mouse model of experimental allergic asthma (Sel 2008, Wegmann 2005, Wegmann 2007, Lunding 2015a) was used to evaluate dapansutrile as a therapeutic option in allergic bronchial asthma and to determine if dapansutrile would have an impact on airway inflammation and the development of airway hyperresponsiveness (AHR) Inflammation in this model is characterized by the infiltration of eosinophils as well as of TH2 cells and involves the subsequent development of AHR and mucus hyperproduction so that this model resembles the major pathophysiologic hallmarks of human bronchial asthma.
C57BL/6j mice were sensitized to OVA (ovalbumin) by three intraperitoneal (i.p.) injections of 10 μg OVA adsorbed to 150 mg aluminum hydroxide on days 1, 14, and 21. This sensitization results in an adoptive immune response against OVA with OVA-specific TH2 cells and the production of OVA-specific antibodies of the subclasses IgE and IgG4.
To induce acute allergic airway inflammation, mice were exposed three times to an OVA aerosol (1% w/v in PBS) on days 26, 27, and 28.
Healthy control animals (healthy group) were sham sensitized to PBS and subsequently challenged with PBS aerosol. Non-drug treated animals (asthmatic group) and drug-treated animals (treated group) were sensitized by […] and subsequently challenged with OVA aerosol. The treatment group were treated with dapansutrile at 60 mg/kg at days 25, 26, 27, and 28 by intraperitoneal (i.p). injection, whereas the healthy group and the asthmatic group were administered with saline by intraperitoneal injection on days 25, 26, 27, and 28.
Eight animals per group were used. All animals were sacrificed on day 29. The following readouts were measured according to Lunding, 2015b. • General infiltration of inflammatory cells into the broncheoalveolar lumen • Determination of the specific infiltration of eosinophils, neutrophils and lymphocytes by histologic differentiation of the bronchoalveolar lavage (BAL) cells. • Goblet cell hyperplasia by CAST system (Computer Assisted Stereological Toolbox), including making microscopic pictures of the airways. • Airway resistance in response to methacholine to determine the airway hyperresponsiveness.
Specifically, inflammatory cell subpopulations (eosinophils, macrophages, neutrophils, lymphocytes) infiltrating the bronchoalveolar lumen were quantified using cyto-spinned and quick-diff-stained cells from bronchoalveolar lavage fluids (BALF). Further, inflammatory cell infiltration was recorded from hematoxylin and eosin (HE)-stained lung/airway cross-sections. AHR was assessed by recording airway resistance during a methacholine (MCh) provocation test in mice mechanically ventilated by a Buxco FinePoint RC unit. Mucus hyperproduction was quantified in PAS (periodic acid-Schiff)-stained airway cross-sections undergoing systematic, uniform random sampling and subsequent stereologic analysis of mucus amount in the airways and mucus producing goblet cells in the airway mucosa.
Allergic airway inflammation and mucus hyperproduction were assessed on Day 29, 24 hours after the final OVA aerosol challenge and dapansutrile dose.

**Q.** Which “concentrations of all measured cytokines in BALF” value [1] does the source give for `CS(=O)(=O)CCC#N` [dapansutrile, 3-methanesulfonylpropionitrile] here?
**A.** some reduction

**Q.** And the “IL-1β concentration in BALF” value ([1]; p<0.001)?
**A.** statistically significant reduction

**Q.** What about the “IL-6 concentration in BALF” value ([1]; p<0.05) of the same compound?
**A.** statistically significant reduction

**Q.** What about the “reduction of airway resistance” value ([2]; vs asthmatic mice, p<0.0001) of the same compound?
**A.** about 60%

**Q.** And the “airway resistance in response to methacholine” value ([2]; treated mice, asthmatic 5.61, healthy 2.83)?
**A.** 3.93 cm H2O·sec·ml^−1

**Q.** What about the blood level [3] of the same compound?
**A.** ~40 µg/mL

**Q.** And the “reduction in lymphocytes in BALF” value ([4]; 60 mg/kg i.p. days 25-28, vs asthmatic mice)?
**A.** 32%

**Q.** And the “reduction in eosinophils in BALF” value ([4]; 60 mg/kg i.p. days 25-28, vs asthmatic mice, p<0.0001)?
**A.** approximately 60%

**Q.** What about the “reduction in neutrophils in BALF” value ([4]; 60 mg/kg i.p. days 25-28, vs asthmatic mice, p<0.01) of the same compound?
**A.** 70%

**Q.** And the “macrophage numbers in BALF” value ([4]; 60 mg/kg i.p., vs asthmatic mice)?
**A.** no significant reduction

**Q.** What about the “eosinophils in BALF” value ([4]; treated mice, 60 mg/kg i.p. days 25-28, asthmatic 21.96×10^4) of the same compound?
**A.** 7.30×10^4 cells/ml

**Q.** And the “lymphocytes in BALF” value ([4]; treated mice, 60 mg/kg i.p., asthmatic 0.80×10^4)?
**A.** 0.55×10^4 cells/ml

**Q.** What about the “neutrophils in BALF” value ([4]; treated mice, 60 mg/kg i.p., asthmatic 2.41×10^4) of the same compound?
**A.** 0.70×10^4 cells/ml
